Reference: patent publication US6825340B2, “Methods and reagents for inactivating ribonucleases” (Ambion, Inc., priority 1998, dated 2004)

Legend:
[1] = tested on: unknown RNase in alkaline phosphatase storage solution; test: Isotopic assay of RNase activity in alkaline phosphatase storage solution; assay type: biochemical; details: 60° C. for 20 minutes
Experimental: The isotopic RNase assay uses a radioactive RNA synthesized by in vitro transcription as the RNA substrate. The RNA used in the following examples was 1.9 or 4.0 kb in length. The radioactive RNA was synthesized using a T7 MEGAscript™ transcription kit (Ambion, Inc.). The in vitro transcription reaction mixture contained 1.0 μg of linearized DNA template, 2 μl of 10× transcription buffer, 1 μl of UTP[α-^32P] (800 Ci/mmol), 2 μl of each 75 mM ribonucleotide and 2 μl of the T7 RNA polymerase mix, final volume of 20 μl. The reaction was incubated at 37° C. for 3 hours. The transcript was precipitated with 7.5 M LiCl and resuspended in 0.1 ml of 1 mM sodium citrate (pH 6.6) or RNase free water.
2 μl of the RNA probe was incubated with the test sample in a final volume of 10 μl for about 16 hours at 37° C. After incubation, the RNA was fractionated in a denaturing 6 M urea 5% acrylamide gel and then the gel was exposed to x-ray film. Untreated RNA was also fractionated as a control with the test samples for comparative purposes. […] RNase activity was indicated by the intensity of the RNA decreasing and by the appearance of smearing below the intact RNA. […]
A commercial solution of unknown composition to the inventors designed to stabilize the storage of alkaline phosphatase was detected to have RNase activity using the isotopic assay. […]

[2] = DTNB test of DTT reducing strength (absorbance at 412 nm); assay type: physicochemical
Source text: DTT has low redox potential (−0.33 volts at pH 7.0) and is capable of maintaining monothiols effectively in the reduced form and of reducing disulfides quantitatively (Cleland, 1964). DTT acts as a protective agent for free sulfhydryl groups. […] DTT's reducing activity can be accurately assayed using 5, 5′-dithiobis (2-nitrobenzoic acid) or DTNB (Cleland, 1964). The reduction of DTNB mediated by DTT generates a yellow color whose absorbance can be measured at 412 nm using a spectrophotometer. RNase A, RNase 1 and RNase T1 all contain disulfide bonds (Ryle and Anfinesen, 1957; Barnard, 1969) and, therefore, are susceptible to reduction.
FIG. 5. DTT is oxidized by incubating at 65° C. for 6 days. DTT was made to 100 mM in water and incubated at 65° C. for 6 days. Fresh DTT and the heated 100 mM were diluted in water to different concentrations and subjected to the DTNB test. Absorbance at 412 nm indicates the reducing strength of the DTT.
To assess the effect that the ribonuclease mixture has on the oxidation of DTT, the RNase mixture at 1 μg/ml was incubated with DTT at 0.05, 0.1, 0.15, 0.2 and 0.25 mM at 60° C. for 20 minutes. 0.1 ml of each sample was added to 0.8 ml of 0.1 M KPO4 (pH 7.7) and 0.1 ml DTNB in 0.1 KPO4 (pH 7.7). Samples which were not treated with heat were also subjected to the DTNB assay for comparison. The DTNB reaction mixtures were incubated at 21° C. for 10 minutes to allow the yellow color to develop. Absorbances were measured at 412 nm. The results were that there was no difference in the reactivity of the DTT whether it had been used to inactivate the RNase mixture or not.
DTT was made to 100 mM in water and incubated at 65° C. for 6 days. This material was diluted to 50, 100, 150, 200, 250 micromolar in water and then assayed for its reducing strength using the DTNB test described in Example 7 and compared to the same concentrations of DTT made fresh in water. The absorbance at 412 nm directly correlates with reducing strength. The greater the absorbance, the greater the reducing power.

For `O[C@H](CS)[C@H](O)CS` [DTT, dithiothreitol], the “RNase activity of alkaline phosphatase storage solution” value ([1]; 2 mM DTT) was “no detectable RNase activity”, the “RNase activity of alkaline phosphatase storage solution” value ([1]; 5 mM DTT) was “no detectable RNase activity” and the “stability of DTT reducing strength” value ([2]; DTT 100 mM in water incubated at 65° C. for 6 days) was “completely oxidized”. For the same molecule, the “reactivity of DTT after use to inactivate the RNase mixture vs non-reacted DTT” value ([2]; RNase mixture 1 μg/ml, DTT 0.05-0.25 mM, 60° C. for 20 minutes) was “no difference” and the “loss of DTT reducing power with each heating step” value ([2]; sequential inactivations, 60° C. for 20 minutes) was “no detectable loss”.
